In the assay the test system is yeast cells. Kind of assay: EMS mutagenesis of yeast cells. It is filed as cell-based. Particulars: 3 μL EMS per 200 μL cell suspension, approximately one hour. Here is the method:
For example, yeast cells from a fresh YP (yeast extract/peptone)+20 g/L glucose plate or liquid culture (OD600 1-4) are resuspended in sterile water to an OD600 of around 10. 200 μL aliquots of this cell suspension are pipetted into individual tubes and exposed to 3 μL […] (EMS) for approximately one hour, which kills around 65% of the cells. Higher EMS concentrations can also be used to increase the kill rate. After exposure, cells are neutralized with 5% sodium thiosulfate, washed in PBS buffer, recovered in rich media for approximately four hours, and cultured on selective media. Mock samples (no EMS) are also run to ensure that the conditions are selective. Alternatively, cell can be mutagenized using UV irradiation.

Regarding `CCOS(C)(=O)=O` [EMS, ethane methyl sulfonate], the Cells killed result was “around 65%”.

The record behind these values is patent publication US9605285B2, “Compositions and methods for succinate production” (CARGILL, INCORPORATED, priority 2011, dated 2017).
